# pIC50: −log10 of the molar value. The source made the active and inactive calls. The rule behind the calls is not given here.
# What was measured:
# [1] = target: T1, Androgen receptor (Rattus norvegicus) (UniProt P15207); assay: Relative binding affinity against androgen (AR) receptor of rat after 24 hr incubation as percent binding compared to R1881
# T1 sequence (whole entry): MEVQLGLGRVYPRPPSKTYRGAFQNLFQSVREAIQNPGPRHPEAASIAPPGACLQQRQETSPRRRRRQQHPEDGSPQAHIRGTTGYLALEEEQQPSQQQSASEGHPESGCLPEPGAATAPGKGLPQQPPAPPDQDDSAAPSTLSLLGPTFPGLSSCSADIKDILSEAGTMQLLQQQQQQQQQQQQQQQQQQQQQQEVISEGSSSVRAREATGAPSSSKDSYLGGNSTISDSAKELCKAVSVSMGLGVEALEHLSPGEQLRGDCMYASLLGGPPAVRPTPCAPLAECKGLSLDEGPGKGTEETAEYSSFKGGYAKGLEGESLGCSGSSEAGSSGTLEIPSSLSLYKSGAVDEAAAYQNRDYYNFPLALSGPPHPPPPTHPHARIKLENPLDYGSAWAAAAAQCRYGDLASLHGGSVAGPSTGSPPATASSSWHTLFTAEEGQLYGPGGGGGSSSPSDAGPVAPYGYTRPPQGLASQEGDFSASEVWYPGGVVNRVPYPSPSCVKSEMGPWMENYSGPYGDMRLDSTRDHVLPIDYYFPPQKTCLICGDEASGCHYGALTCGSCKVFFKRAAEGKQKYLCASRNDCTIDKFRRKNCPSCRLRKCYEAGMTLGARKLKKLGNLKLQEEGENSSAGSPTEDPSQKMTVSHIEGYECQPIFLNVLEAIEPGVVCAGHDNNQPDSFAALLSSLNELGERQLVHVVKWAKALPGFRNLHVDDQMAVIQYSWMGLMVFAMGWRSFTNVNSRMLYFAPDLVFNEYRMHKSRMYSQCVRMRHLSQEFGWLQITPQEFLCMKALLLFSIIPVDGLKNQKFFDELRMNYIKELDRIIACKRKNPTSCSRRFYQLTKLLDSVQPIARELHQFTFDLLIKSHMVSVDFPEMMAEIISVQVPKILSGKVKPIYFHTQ
# [2] = target: T2, Glucocorticoid receptor (Rattus norvegicus) (UniProt P06536); assay: Relative binding affinity against Glucocorticoid receptor of rat after 2 hr incubation as percent binding compared to Dexamethasone
# T2 sequence (whole entry): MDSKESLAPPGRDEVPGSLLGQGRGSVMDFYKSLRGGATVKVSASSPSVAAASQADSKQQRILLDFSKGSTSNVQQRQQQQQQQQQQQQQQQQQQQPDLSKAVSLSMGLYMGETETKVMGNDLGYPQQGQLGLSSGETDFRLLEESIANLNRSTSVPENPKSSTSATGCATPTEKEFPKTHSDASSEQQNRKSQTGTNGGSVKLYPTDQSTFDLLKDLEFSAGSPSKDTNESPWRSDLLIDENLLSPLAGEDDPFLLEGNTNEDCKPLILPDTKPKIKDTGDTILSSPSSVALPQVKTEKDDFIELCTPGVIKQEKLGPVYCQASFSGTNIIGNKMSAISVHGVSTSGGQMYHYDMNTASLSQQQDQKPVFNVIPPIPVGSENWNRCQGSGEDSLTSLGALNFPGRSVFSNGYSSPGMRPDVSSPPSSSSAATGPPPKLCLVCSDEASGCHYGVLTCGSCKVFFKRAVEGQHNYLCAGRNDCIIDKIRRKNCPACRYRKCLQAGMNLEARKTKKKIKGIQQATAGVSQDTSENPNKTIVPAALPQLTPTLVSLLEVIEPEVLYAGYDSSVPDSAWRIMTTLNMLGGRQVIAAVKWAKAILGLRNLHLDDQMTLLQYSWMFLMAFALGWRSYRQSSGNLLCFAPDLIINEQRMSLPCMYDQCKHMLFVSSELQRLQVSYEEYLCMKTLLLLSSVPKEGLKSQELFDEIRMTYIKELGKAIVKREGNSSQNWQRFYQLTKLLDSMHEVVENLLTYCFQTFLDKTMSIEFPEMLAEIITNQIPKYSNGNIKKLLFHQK
# [3] = target: T3, Progesterone receptor (Homo sapiens, UniProt P06401); assay: In vitro antagonist potency in transactivation assay in neuroblastoma cells expressing human PR-A progesterone receptor; assay type: functional, cell-based
# T3 sequence (P06401 whole entry): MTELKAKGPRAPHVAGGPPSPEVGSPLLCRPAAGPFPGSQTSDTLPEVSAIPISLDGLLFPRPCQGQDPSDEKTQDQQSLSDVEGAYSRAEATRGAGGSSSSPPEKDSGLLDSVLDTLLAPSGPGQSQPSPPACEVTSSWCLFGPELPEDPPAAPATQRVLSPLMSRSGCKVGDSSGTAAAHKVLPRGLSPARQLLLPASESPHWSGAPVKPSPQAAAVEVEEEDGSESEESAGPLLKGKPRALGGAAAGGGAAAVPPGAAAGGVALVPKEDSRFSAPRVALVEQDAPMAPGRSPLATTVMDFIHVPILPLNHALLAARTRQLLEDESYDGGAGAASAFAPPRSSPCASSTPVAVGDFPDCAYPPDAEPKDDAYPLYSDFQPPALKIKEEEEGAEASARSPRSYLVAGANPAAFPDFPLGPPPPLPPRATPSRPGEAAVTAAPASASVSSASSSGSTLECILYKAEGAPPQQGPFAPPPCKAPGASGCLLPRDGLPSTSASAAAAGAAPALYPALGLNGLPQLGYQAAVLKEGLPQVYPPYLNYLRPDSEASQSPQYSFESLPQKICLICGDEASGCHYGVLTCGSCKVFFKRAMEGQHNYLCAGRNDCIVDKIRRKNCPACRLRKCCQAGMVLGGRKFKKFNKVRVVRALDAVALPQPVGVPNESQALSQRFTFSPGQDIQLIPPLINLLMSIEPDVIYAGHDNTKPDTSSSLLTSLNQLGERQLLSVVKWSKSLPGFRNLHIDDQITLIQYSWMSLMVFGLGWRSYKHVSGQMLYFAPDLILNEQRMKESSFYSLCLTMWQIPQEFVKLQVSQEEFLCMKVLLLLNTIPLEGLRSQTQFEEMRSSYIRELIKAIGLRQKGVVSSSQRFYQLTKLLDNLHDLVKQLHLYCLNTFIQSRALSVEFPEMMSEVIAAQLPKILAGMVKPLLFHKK
# [4] = target: T4, Androgen receptor (Homo sapiens, UniProt P10275); assay: In vitro antagonist potency in transactivation assay in CV-1 cells expressing androgen receptor; assay type: functional, cell-based
# T4 sequence (P10275 whole entry): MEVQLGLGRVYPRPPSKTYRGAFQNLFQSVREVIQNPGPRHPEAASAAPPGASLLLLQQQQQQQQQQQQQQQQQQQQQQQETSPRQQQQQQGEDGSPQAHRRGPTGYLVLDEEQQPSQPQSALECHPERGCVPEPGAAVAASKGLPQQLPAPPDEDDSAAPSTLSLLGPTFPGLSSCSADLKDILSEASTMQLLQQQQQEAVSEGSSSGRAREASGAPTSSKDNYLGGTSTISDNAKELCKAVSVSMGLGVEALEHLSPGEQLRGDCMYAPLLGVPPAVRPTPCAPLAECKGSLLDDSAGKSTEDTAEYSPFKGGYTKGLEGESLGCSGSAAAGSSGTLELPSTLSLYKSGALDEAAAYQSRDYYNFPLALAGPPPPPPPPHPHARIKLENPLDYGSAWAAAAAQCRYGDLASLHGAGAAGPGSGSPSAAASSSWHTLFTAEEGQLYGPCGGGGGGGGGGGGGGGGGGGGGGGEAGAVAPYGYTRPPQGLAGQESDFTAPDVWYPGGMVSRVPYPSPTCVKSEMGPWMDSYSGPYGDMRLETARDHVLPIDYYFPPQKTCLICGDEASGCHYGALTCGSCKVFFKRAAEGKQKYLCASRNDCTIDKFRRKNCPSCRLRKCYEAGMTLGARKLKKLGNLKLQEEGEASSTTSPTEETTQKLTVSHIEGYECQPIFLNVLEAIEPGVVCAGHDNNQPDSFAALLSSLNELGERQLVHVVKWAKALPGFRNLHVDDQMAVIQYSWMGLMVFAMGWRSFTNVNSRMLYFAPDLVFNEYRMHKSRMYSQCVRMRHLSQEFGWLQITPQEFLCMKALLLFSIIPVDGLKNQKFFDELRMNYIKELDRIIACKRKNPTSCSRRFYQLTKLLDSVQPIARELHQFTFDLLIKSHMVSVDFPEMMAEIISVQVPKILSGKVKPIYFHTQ
# [5] = target: T3, Progesterone receptor; assay: In vitro antagonist potency in transactivation assay in neuroblastoma cells expressing human PR-B progesterone receptor; assay type: functional, cell-based
# [6] = target: T5, Glucocorticoid receptor (Mus musculus, UniProt P06537); assay: In vitro antagonist potency in transactivation assay in NIH3T3 cells expressing glucocorticoid receptor; assay type: functional, cell-based
# T5 sequence (P06537 whole entry): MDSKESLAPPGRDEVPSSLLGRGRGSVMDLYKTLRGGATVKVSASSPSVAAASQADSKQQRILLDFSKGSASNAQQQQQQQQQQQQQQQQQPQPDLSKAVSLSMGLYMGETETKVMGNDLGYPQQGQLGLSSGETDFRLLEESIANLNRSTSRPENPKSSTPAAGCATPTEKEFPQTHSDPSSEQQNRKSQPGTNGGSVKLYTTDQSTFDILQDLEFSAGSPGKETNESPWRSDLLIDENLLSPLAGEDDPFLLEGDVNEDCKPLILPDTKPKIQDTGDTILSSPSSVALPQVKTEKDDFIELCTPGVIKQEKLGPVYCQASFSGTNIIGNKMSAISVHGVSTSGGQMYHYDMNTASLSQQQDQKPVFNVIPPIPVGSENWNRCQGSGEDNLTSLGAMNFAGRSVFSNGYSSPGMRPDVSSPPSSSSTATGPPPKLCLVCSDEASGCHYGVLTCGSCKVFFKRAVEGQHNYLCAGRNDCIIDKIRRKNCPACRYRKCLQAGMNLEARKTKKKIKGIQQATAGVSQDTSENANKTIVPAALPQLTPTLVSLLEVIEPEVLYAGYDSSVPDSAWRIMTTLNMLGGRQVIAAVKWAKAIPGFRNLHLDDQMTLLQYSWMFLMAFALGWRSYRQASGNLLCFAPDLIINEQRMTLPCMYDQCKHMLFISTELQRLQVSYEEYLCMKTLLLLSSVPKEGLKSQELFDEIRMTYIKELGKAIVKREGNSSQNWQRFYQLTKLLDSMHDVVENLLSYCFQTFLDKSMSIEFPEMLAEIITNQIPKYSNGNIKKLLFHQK
# [7] = organism: Oryctolagus cuniculus; assay: Relative binding affinity against rabbit progesterone (PR) receptor after 24 hr incubation as perent binding compared to progesterone
# [8] = target: T6, Progesterone receptor (Rattus norvegicus) (UniProt Q63449); assay: Full abortifacient effect at 0.03 mg/animal/day in pregnant rats; assay type: functional
# T6 sequence (whole entry): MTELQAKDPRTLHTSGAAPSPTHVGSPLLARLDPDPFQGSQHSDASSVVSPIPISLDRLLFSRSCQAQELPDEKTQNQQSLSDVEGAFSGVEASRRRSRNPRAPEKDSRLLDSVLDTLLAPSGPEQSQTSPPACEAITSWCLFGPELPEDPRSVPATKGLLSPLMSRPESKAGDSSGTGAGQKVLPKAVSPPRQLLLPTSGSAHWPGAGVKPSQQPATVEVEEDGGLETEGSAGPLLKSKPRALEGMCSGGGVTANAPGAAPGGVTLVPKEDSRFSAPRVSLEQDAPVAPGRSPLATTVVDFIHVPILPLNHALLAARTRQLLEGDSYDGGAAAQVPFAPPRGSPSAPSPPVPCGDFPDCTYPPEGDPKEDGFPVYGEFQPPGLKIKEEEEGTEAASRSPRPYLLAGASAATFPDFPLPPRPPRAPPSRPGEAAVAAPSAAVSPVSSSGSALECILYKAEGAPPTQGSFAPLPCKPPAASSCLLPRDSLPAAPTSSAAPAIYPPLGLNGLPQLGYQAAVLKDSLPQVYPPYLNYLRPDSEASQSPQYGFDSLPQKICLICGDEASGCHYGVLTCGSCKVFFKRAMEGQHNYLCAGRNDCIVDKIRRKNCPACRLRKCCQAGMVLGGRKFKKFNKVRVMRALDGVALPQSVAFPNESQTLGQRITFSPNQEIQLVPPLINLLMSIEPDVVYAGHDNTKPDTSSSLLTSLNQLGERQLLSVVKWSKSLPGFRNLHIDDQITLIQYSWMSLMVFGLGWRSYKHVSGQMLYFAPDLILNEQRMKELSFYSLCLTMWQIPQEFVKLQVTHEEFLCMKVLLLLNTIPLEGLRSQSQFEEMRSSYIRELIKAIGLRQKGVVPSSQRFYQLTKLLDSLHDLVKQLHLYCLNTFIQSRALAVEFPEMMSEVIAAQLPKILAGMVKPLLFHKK
# [9] = target: T6, Progesterone receptor (Rattus norvegicus); assay: Full abortifacient effect at 0.1 mg/animal/day in pregnant rats; assay type: functional
# [10] = target: T6, Progesterone receptor (Rattus norvegicus); assay: Full abortifacient effect at 0.3 mg/animal/day in pregnant rats; assay type: functional
# [11] = target: T6, Progesterone receptor (Rattus norvegicus); assay: Incomplete abortifacient effect at 0.03 mg/animal/day in pregnant rats; assay type: functional
# [12] = target: T6, Progesterone receptor (Rattus norvegicus); assay: Incomplete abortifacient effect at 0.1 mg/animal/day in pregnant rats; assay type: functional
# [13] = target: T6, Progesterone receptor (Rattus norvegicus); assay: Incomplete abortifacient effect at 0.3 mg/animal/day in pregnant rats; assay type: functional
# [14] = target: T1, Androgen receptor (Rattus norvegicus)
# Description: Antiandrogenic activity in orchidectomized young male rats after oral administration
# [15] = target: T2, Glucocorticoid receptor (Rattus norvegicus)
# Description: Antiglucocorticoid activity in adrenalectomized young male rats after oral administration
# [16] = target: T7, Progesterone receptor (Homo sapiens) (UniProt P06401)
# T7 sequence (whole entry): T3 sequence (P06401 whole entry)
# Description: In vitro agonist potency in transactivation assay of neuroblastoma cells expressing human PR-B progesterone receptor; NE=no effect
# [17] = target: T7, Progesterone receptor (Homo sapiens); remark: listed apart in the source
# [18] = target: T8, Glucocorticoid receptor (Mus musculus) (UniProt P06537); settings: NIH3T3
# T8 sequence (whole entry): T5 sequence (P06537 whole entry)
# Description: In vitro agonist potency in transactivation assay in NIH3T3 cells expressing glucocorticoid receptor; NE=no effect
RBA [1],RBA [2],pIC50 [3],pIC50 [4],pIC50 [5],pIC50 [6],RBA [7],Abortion [8],Abortion [9],Abortion [10],Abortion [11],Abortion [12],Abortion [13],ED50 mg/animal/day [14],ED50 mg/animal/day [15],NE [16],NE [17],NE [18],SMILES
3.1%,22.2%,11.44,7.27,11.60,7.80,140%,0%,83%,100%,0%,17%,0%,1.3,2,–,–,–,CC(=O)c1ccc([C@H]2C[C@@]3(C)[C@@H](CC[C@@]3(O)C(F)(F)C(F)(F)F)[C@@H]3CCC4=CC(=O)CCC4=C32)cc1 [LONAPRISAN]
–,–,–,–,–,8.66,–,–,–,–,–,–,–,–,–,inactive,inactive,inactive,CC#C[C@]1(O)CC[C@H]2[C@@H]3CCC4=CC(=O)CCC4=C3[C@@H](c3ccc(N(C)C)cc3)C[C@@]21C [MIFEPRISTONE]

# — ChEMBL document CHEMBL1133568 (J Med Chem, 2000)
